# Experimental data reported in patent US20110104057A1, “Novel [F-18]-labelled L-glutamic acid and L-glutamine derivatives (II), their use and processes for their preparation” (BAYER SCHERING PHARMA AKTIENGESELLSCHAFT, priority 2008, published 2011).
# Tests used:
# [1] = tested on: rats bearing H460 tumours; experiment: PET imaging in rats bearing H460 tumours; assay type: in vivo
# Protocol: (§1) (2S,4S)-2-Amino-4-(6-[F-18]fluorohexyl)pentanedioic acid was studied in rats bearing H460 tumours using PET imaging and subsequent organ distribution.
# (§2) The highest enrichment at 0.52% of the injected dose per g in the tumour was measured at a time of 100 min after injection. […] Thus, in these organs, an uptake of 0.36% ID/g and 0.20% ID/g, respectively, was observed after 100 min. Uptake into the bones was 0.43% ID/g.
# 60 min after i.v. administration of 15 MBq of (2S,4S)-2-amino-4-(6-[F-18]fluorohexyl)pentanedioic acid to rats bearing H460 tumours, data acquisition with a PET scanner (Inveon) was started for 30 minutes.
# FIG. 3. PET study of 60 to 90 min after injection of (2S,4S)-2-amino-4-(6-[F-18]fluorohexyl)pentanedioic acid into mice bearing H460 tumours (analysis of sections)
# FIG. 4. PET study of 60 to 90 min after injection of (2S,4S)-2-amino-4-(6-[F-18]fluorohexyl)pentanedioic acid into mice bearing H460 tumours (whole body imaging)
# [2] = tested on: rats bearing H460 tumours; experiment: organ distribution after i.v. administration to animals bearing H460 tumours; assay type: in vivo; settings: 100 min after i.v. administration of 15 MBq
# Protocol: as §1, §2
# A460 tumour cells = experiment: cellular uptake of the F-18-labelled compound in tumour cells; assay type: cell-based, human; settings: for uptake, % of the dose per 100 000 cells: after 30 min of incubation
# Source text: Following labelling with F-18, (4S)-4-(6-[F-18]fluorohexyl)-L-Glu was examined in cell experiments with A460 tumour cells (human non-small-cell bronchial carcinoma).
# A549 cells = experiment: competition cell experiment: inhibition of the uptake of 4R/S-[F-18]F-L-glutamic acid (tracer); assay type: cell-based, human; settings: for % Tracer uptake: A549 cells, 10 min of incubation with 0.250 MBq of 4R/S-[F-18]F-L-Glu in PBS buffer, competitor concentration 1 mM, control = 100.0; for inhibition of tracer uptake: competitor 1 mM, tracer 4R/S-[F-18]F-L-glutamic acid
# Protocol: The uptake of the glutamic acid derivatives according to the invention into tumour cells was investigated in cell experiments. Here, the uptake of a radiolabelled glutamic acid derivative (4R/S—[F-18]F-L-glutamic acid) was examined in the presence of the compounds according to the invention (competition experiments). The compounds according to the invention were employed in excess (1 mM) over 4R/S—[F-18]F-L-glutamic acid (tracer).
# FIG. 1: graphic representation of the inhibition of the cellular uptake of 4R/S—[F-18]F-L-Glu by compounds according to the invention branched in the 4-position in A549 cells (human non-small-cell bronchial carcinoma) after 10 min of incubation.
# [3] = PET 60-90 min after i.v. administration of 15 MBq
compound,measurement,setting,value
"N[C@@H](C[C@H](CCCCCC[18F])C(=O)O)C(=O)O [(2S,4S)-2-Amino-4-(6-[F-18]fluorohexyl)pentanedioic acid]",PET image analysis: enrichment in the remainder of the body,[1]; [3],low enrichment
same,PET image analysis: uptake into the H460 tumour,[1]; [3],high uptake
same,PET study: uptake or excretion in the kidneys or pancreas,[1]; PET study,transient uptake or excretion
same,% ID/g Tumour,[2]; H460 tumour,0.52 % ID/g
same,% ID/g Blood,[2]; H460 tumour bearing animals,0.04 % ID/g
same,% ID/g Bones,[2]; H460 tumour bearing animals,0.43 % ID/g
same,% ID/g Kidney,[2]; H460 tumour bearing animals,0.36 % ID/g
same,% ID/g Liver,[2]; H460 tumour bearing animals,0.08 % ID/g
same,% ID/g Muscle,[2]; H460 tumour bearing animals,0.02 % ID/g
same,% ID/g Pancreas,[2]; H460 tumour bearing animals,0.20 % ID/g
same,"uptake, % of the dose per 100 000 cells",A460 tumour cells; listed as 4-(6-[F-18]fluorohexyl)-L-Glu,11.2 % of the dose per 100 000 cells
same,"uptake, % of the dose per 100 000 cells",A460 tumour cells; listed as (4S)-4-(6-[F-18]fluorohexyl)-L-Glu,11.2 % of the dose per 100 000 cell
same,time course of cellular uptake,"A460 tumour cells; tumour cells, F-18-labelled compound",time-dependent cellular uptake
"NC(CC(OC1CC(F)C1)C(=O)O)C(=O)O [(4S)-4-(3-fluorocyclobutoxy)-Glu, 2-Amino-4-(3-fluorocyclobutoxy)pentanedioic acid]",% Tracer uptake,A549 cells,5.7%
same,inhibition of tracer uptake,A549 cells,> 90%
N[C@@H](C[C@H](O)C(=O)O)C(=O)O [(4S)-hydroxy-Glu],% Tracer uptake,A549 cells,13.2%
"N[C@@H](C[C@H](CCCCCCF)C(=O)O)C(=O)O [(4S)-4-(6-fluorohexyl)-Glu, (2S,4S)-2-Amino-4-(6-fluorohexyl)pentanedioic acid]",% Tracer uptake,A549 cells,6.3%
same,inhibition of tracer uptake,A549 cells,94%
"N[C@@H](CCC(=O)O)C(=O)O [L-Glu, L-configured glutamic acid]",% Tracer uptake,A549 cells,12.6%
same,inhibition of tracer uptake,A549 cells,87%
C[C@@H](C[C@H](N)C(=O)O)C(=O)O [(4S)-methyl-Glu],% Tracer uptake,A549 cells,7.7%
N[C@@H](C[C@H](CCCF)C(=O)O)C(=O)O [(4S)-4-(3-fluoropropyl)-Glu],% Tracer uptake,A549 cells,5.4%
NC(CC(F)C(=O)O)C(=O)O (racemic) [4-(R/S)-fluoro-D/L-Glu],% Tracer uptake,A549 cells,16.3%
